Assay results reported in patent publication US20230287316A1, “INTER-ORGAN PLATFORM WITH TISSUE-SPECIFIC NICHES FOR A MICROPHYSIOLOGICAL SYSTEM ON A CHIP” (THE TRUSTEES OF COLUMBIA UNIVERSITY IN THE CITY OF NEW YORK, priority 2020, published 2023).

Key:
[1] = test system: non-metastatic TE-ES bone tumor; experiment: Linsitinib on non-metastatic TE-ES in 1:1 mixed media; format: cell-based, human; settings: 12 µM regimen
Method: (§1) Cell viability was analyzed using a previously established protocol.^59 Cancer cell viability was measured for GFP-Luciferase labelled cancer cells using ONE-Glo luciferase substrate that was prepared according to manufacturer’s protocol (Promega). Samples were collected following 3, 7, and 21 days cycles of linsitinib treatment. Where noted, longitudinal cell viability was also assessed using luminescence, though at the cost of signal strength. Briefly, in vivo grade VivoGlo™ Luciferin (Promega) was made at a 200x stock concentration (30 mg/ml) in water, added to sample culture media at a 1:200 dilution, and scanned using a spectrophotometer (Biotek). Some of the IC50 values were determined using cell viability data generated using an MTT assay (RealTime-Glo™ MT Cell Viability Assay, Promega) that were analyzed according to manufacturer’s protocol.
Osteocalcin (OCN), osteopontin (OPN), and lactic acid dehydrogenase (LDH) secreted levels were all measured using a similar approach. Supernatants were isolated from controls and drug treated TE-ES and equal amounts were used in each assay according to the manufacturer’s instructions. For OCN a Human Osteocalcin Quantikine^R ELISA (R&D Systems) was used, while for OPN it was a Human Osteopontin Quantikine^R ELISA (R&D Systems). LDH secretion was determined using a Lactate Dehydrogenase Assay Kit (Colorimetric; Abcam).

[2] = test system: non-metastatic TE-ES (RD-ES) bone tumor; experiment: Linsitinib on non-metastatic engineered ES bone tumors (TE-ES) cultured in isolation; format: cell-based, human
Source text: FIGS. 31A-E show aspects of the evaluation of the dose-dependent effects of doxorubicin and linsitinib on engineered non-metastatic and metastatic ES bone tumors. […] An MTT viability assay was used to determine drug toxicity, with luminescence generated by viable cells measured at the endpoint (10^4 cells per well, mean± s.e.m., n = 3). […] Tumors are outlined by white dashes and validated using corresponding H&E stains of the identical loci. All scale bars: 250 µm.
FIGS. 32A-D show aspects of responses of human engineered bone ES tumors and cardiac tissues to linsitinib in isolated platform chambers. […] Luminescence as a function of cancer cell number and viability was measured (mean± s.e.m., n = 6 for day 3, and n = 3 for day 7 and 21).
The effects of linsitinib were studied in an experiment performed according to the 3-week treatment cycle used in the clinical trial (3 days of drug administration followed by 4 days without the drug, in 3 cycles), with luminescence signal serving as an indicator of cancer cell viability within the TE-ES.
Supernatants were collected from each individual sample across the duration of the drug treatments and were analyzed for osteoblast function (OCN, OPN) and for cytotoxicity (LDH) (mean± s.e.m., n = 3).
Two weeks following the initiation of osteogenic differentiation, aggregates of ES tumor cells were prepared as described previously, using 0.3 × 10^6 cells per aggregate. After 1 week of culture, corresponding to the end of bone tissue culture (3 weeks), the primary ES cell aggregates were placed into the engineered bone constructs (3 aggregates per construct, placed apart of each other). Tumor models were established for two different types of primary ES cells: non-metastatic (RD-ES) and metastatic (SK-N-MC). Tissue engineered RD-ES and SK-N-MC tumors were cultured in the RPMI and EMEM media, respectively, supplemented with 10% FBS and 1% penicillin/streptomycin. Bone constructs cultured without tumor cell aggregates (TE-bone) in RPMI and EMEM media were used as controls.
To assess apoptosis, paraffin embedded tissue sections were first deparaffinized with CitriSolv, rehydrated with graded series of ethanol washes, and then stained with a Click-iT® TUNEL Alexa Fluor® imaging assay (Thermo Fisher Scientific). Following nuclear counterstaining with DAPI (Life Technologies), the TUNEL labelled slides were imaged with an IX81 inverted fluorescent microscope (Olympus) and a Pike F032B camera (ALLIED Vision), using NIS-Elements AR software, and processed using ImageJ (NIH). Four representative images per condition were then analyzed using the previously developed automatic TUNEL cell counter plugin for ImageJ to quantify DAPI^+ cells and TUNEL^+ cells.
as §1, with “(Biotek).” for “(Biotek). Some of the IC50 values were determined using cell viability data generated using an MTT assay (RealTime-Glo™ MT Cell Viability Assay, Promega) that were analyzed according to manufacturer’s protocol.”

phosphorylated IGF-1R = target: T1, phosphorylated IGF-1R (Homo sapiens, UniProt P08069); experiment: Human Phospho-IGF1R ELISA in ES cell monolayers; format: cell-based; settings: 12 µM for 6 hours, non-metastatic and metastatic ES cell lines
T1 construct: both RD-ES and SK-N-MC monolayers were treated with 12 µM linsitinib for 6 hours, lysed; endogenous in cells; host or cells: RD-ES (ATCC HTB-166) and SK-N-MC (ATCC HTB-10) Ewing sarcoma cell lines

[3] = 12 µM, 3-week regimen, supernatants

T1 sequence (P08069 31-1367): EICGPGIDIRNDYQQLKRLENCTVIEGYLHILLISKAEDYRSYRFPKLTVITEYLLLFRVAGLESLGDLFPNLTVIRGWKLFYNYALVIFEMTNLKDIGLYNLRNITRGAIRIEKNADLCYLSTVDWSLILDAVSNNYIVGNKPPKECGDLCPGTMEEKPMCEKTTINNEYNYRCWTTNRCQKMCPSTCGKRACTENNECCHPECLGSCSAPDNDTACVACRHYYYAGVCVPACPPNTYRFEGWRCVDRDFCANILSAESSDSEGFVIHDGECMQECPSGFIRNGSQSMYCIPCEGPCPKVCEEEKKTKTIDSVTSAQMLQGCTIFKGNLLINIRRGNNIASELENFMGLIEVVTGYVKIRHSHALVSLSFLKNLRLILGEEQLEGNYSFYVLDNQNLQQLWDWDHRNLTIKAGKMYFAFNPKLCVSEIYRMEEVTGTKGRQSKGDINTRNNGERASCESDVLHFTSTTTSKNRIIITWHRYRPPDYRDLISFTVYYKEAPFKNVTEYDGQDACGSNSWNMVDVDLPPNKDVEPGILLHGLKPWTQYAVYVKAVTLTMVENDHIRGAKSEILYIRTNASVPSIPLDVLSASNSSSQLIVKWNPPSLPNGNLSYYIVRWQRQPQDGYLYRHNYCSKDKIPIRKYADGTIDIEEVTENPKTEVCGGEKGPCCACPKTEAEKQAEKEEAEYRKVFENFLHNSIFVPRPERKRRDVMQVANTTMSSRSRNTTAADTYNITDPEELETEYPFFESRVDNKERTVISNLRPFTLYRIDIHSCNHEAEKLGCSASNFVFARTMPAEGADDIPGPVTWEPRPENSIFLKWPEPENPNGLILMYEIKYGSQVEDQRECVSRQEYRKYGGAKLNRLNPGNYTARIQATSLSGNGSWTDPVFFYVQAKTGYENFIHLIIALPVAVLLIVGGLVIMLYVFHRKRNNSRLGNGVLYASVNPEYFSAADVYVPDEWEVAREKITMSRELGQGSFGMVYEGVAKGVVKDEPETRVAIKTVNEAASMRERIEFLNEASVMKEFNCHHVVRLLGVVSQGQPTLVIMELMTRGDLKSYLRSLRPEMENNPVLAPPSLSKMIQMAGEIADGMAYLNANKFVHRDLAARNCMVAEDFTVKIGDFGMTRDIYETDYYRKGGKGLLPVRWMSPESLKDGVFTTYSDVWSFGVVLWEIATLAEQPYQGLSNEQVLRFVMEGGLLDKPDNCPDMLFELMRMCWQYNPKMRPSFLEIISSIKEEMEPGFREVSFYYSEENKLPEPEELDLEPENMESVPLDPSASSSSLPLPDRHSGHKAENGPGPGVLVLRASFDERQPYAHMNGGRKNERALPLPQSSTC

C[C@]1(O)C[C@@H](c2nc(-c3ccc4ccc(-c5ccccc5)nc4c3)c3c(N)nccn32)C1 [linsitinib]
OCN secretion [1]: increased only slightly | cancer cell population level (luminescence) [1]: ~ 30 % of their starting population | response to linsitinib concentration (luminescence viability) ([2]; 0, 1.2, 12, and 120 µM for 72 hours): dose-dependent response | apoptosis (TUNEL assay) ([2]; 12 µM): increases in apoptosis | cell viability (luminescence) ([2]; 12 µM): significant reduction in cell viability | LDH secretion (cytotoxicity) [2, 3]: spiked in both models immediately following drug administration, but significantly more so | Osteocalcin secretion [2, 3]: decreased | cancer cell population (luminescence) ([2]; 12 µM, 21-day clinical treatment regimen): initial decrease in cancer cell population in the non-metastatic model and this population appeared unable to continue expanding | drug response (luminescence) ([2]; 12 µM, after 3 days): significant drug response | osteopontin secretion ([2]; 12 µM, throughout the 21 days): significantly increased | drug response of tumors derived from sorted linsitinib-resistant cells ([2]; second 21-day 12 µM treatment regimen): significant initial drug response | levels of phosphorylated IGF-1R (phosphorylated IGF-1R): significant decreases
